Data reported in patent publication EP2420842A1, “In vivo imaging of calcified lesions” (Rheinisch-Westfälische Technische Hochschule Aachen (RWTH), priority 2010, dated 2012).

B1: Alexa Fluor® 488-labelled fetuin-A: Fetuin-A monomer (Sigma Aldrich, F2379), purified by gel chromatography, coupled to Alexa Fluor® 488 dye (conjugate, UniProt P12763 19-359, looked up)
Alpha-2-HS-glycoprotein: IPLDPVAGYKEPACDDPDTEQAALAAVDYINKHLPRGYKHTLNQIDSVKVWPRRPTGEVYDIEIDTLETTCHVLDPTPLANCSVRQQTQHAVEGDCDIHVLKQDGQFSVLFTKCDSSPDSAEDVRKLCPDCPLLAPLNDSRVVHAVEVALATFNAESNGSYLQLVEISRAQFVPLPVSVSVEFAVAATDCIAKEVVDPTKCNLLAEKQYGFCKGSVIQKALGGEDVRVTCTLFQTQPVIPQPQPDGAEAEAPSAVPDAAGPTPSAAGPPVASVVVGPSVVAVPLPLHRAHYDLRHTFSGVASVESSSGEAFHVGKTPIVGQPSIPGGPVRLCPGRIRYFKI
modifications: Alexa Fluor 488 dye
notes: Fetuin-A monomer (Sigma Aldrich, F2379), purified by gel chromatography, coupled to Alexa Fluor® 488 dye

Assays:
[1] = test system: calcifications; test: Combined fluorescence molecular tomography and micro computed tomography (CT-FMT fusion); type: in vivo, mice
Procedure: A dual energy µCT for small animals (TomoScope DUO, CT-Imaging, Erlangen, Germany) was used for anatomical image acquisition. The two electron tubes were both run at energies of 65KV. Each flat panel detector acquired 720 projections at 5 fps, containing 1032x1012 pixels with a pixel size of (50µm)^2. A full rotation was performed and the scan time was 90 seconds per subscan covering 30.8 mm in the transversal direction. Two subscans were acquired to cover almost the entire mouse body. A Feldkamp algorithm was used for reconstruction with isotropic voxel size of […], dimensions of 600x500x440, field of view of 42mm x 35mm x 30.8mm and a soft reconstruction kernel (T10).
The FMT probe was injected 24 hours before imaging through i.v. tail vein injection. Hair was removed with depilatory crème around the region of interest. For preparations and imaging, mice were anesthetized with Isofluran. […]
The reconstructed 3D data sets from CT and FMT were fused by computing a rigid body transformation minimizing the residual error between fiducial markers detected in both modalities. […] The average number of markers that were found in both modalities was 12 with average fiducial error of 0.174mm, which was evaluated on a representative set of 31 scans. […]

[2] = test system: calcifications; test: In vivo whole body fluorescence, 2D mode (FMT instrument); parameters: species or system DBA/2 mice; settings: standard sensitivity settings
Procedure: (§1) We used the FMT™ 2500 instrument from VisEn Medical Inc. (Bedford, MA). Mice were anesthetized with Isofluran (1.5% air 2L/min), depilated in the scanning area and a background measurement was taken for both wavelengths (680 nm and 750 nm). After this procedure the animals received both OsteoSense 750® (2 nmol in a volume of 150 µl) and Fetuin-A Alexa 680 (50 µl of a 7mg/ml solution) by intraperitoneal injection. 24 h after this application, the mice were analyzed in the FMT again and the fluorescence intensity was detected. Reconstruction of the data was performed by VisEn software.

[3] = test system: calcifications; test: Explanted organ fluorescence, 2D reflectance imaging and ROI quantification after co-injection of both probes; type: in vivo, DBA/2 mice
[4] = test system: calcifications; test: In vivo 3D fluorescence molecular tomography of whole mice; parameters: species or system DBA/2 mice
Procedure: as §1

[5] = test system: calcified lesions; test: Histology: staining of calcified lesions with unlabelled or Alexa Fluor 488 labelled fetuin-A (injected or applied to sections); type: in vivo, fetuin-A deficient mice
Procedure: The mice were injected with unlabelled or Alexa Fluor® 488 coupled fetuin-A. They received 100 µl / 25 g body weight of a 7 mg/ml solution. Five hours after injection the mice were killed, organs were harvested, embedded in TissueTek (Sakura), and snap-frozen and in liquid nitrogen. Serial cryotome sections were prepared and fixed in ice cold acetone. For general histology hematoxilin/eosin staining and von-Kossa staining were performed.
To localize unlabelled fetuin-A, sections were incubated for one hour with a homemade polyclonal rabbit anti bovine fetuin-A antibody followed by secondary goat anti rabbit Alexa Fluor® 546 antibody and DAPI staining. To localize calcified lesions, sections were incubated with Alexa Fluor® 488-coupled fetuin-A for one hour and then were counterstained with DAPI. Sections of organs from mice injected with Alexa Fluor® 488 labelled Fetuin A were stained with DAPI only.

Molecule | CT-FMT fused signal localization ([1]; D2, fetuin-A+/+ wildtype mice) | CT-FMT fused signal localization ([1]; D2, fetuin-A-/- mice) | whole body 2D scan signal ([2]; D2, Fetuin-A+/+ wildtype mice) | whole body 2D scan signal ([2]; D2, Fetuin-A-/- mice) | combined signal from regions of interest (ROI), kidneys ([3]; Fetuin-A-/- mice, kidneys) | combined signal from regions of interest (ROI), lungs ([3]; Fetuin-A-/- mice, lungs) | staining of heart (explanted organ) ([3]; fetuin-A deficient mice) | staining of brown fat, lungs and kidneys (explanted organs) ([3]; fetuin-A deficient mice, heavily calcified organs) | tissue accumulation, Fetuin-A-/- versus wildtype, kidneys ([3]; kidneys) | tissue accumulation, Fetuin-A-/- versus wildtype, lungs ([3]; lungs) | signal (2D reflectance images) ([3]; tissues (brown fat, heart, lung, kidneys) from wildtype mice, OsteoSense at both 1-fold and 10-fold sensitivity setting) | combined signal from regions of interest (ROI), kidneys ([3]; wildtype mice, kidneys) | combined signal from regions of interest (ROI), lungs ([3]; wildtype mice, lungs) | 3D fluorescence tomography staining pattern ([4]; DBA/2 wildtype mouse (Fig. 6A, B)) | excretion route (staining of the digestive tract, signal associated with faeces) ([4]; digestive tract) | 3D fluorescence tomography signal ([4]; fetuin-A deficient (knockout) mouse (Fig. 6D)) | 3D fluorescence signal strength ([4]; wildtype and knockout animal (Fig. 6A, C), higher in wildtype than in knockout) | lesion size detected compared with established histology methods (H/E, von Kossa) ([5]; Fig. 1, injected into live animals or applied to histological sections) | detection of lesions in serial sections of the heart ([5]; Fig. 2, fetuin-A deficient mouse, compared with Hematoxylin-Eosin and von Kossa) | staining of calcified lesions ([5]; fetuin-A deficient mice, both in vivo (injected) and on sections)
Fetuin-A Alexa 680: Fetuin-A monomer (Sigma Aldrich, F2379), purified by gel chromatography, coupled to Alexa Fluor® 680 dye | low signal in the digestive tract | faint signal in the neck and the thorax, but a higher one in the kidney and the digestive tract | no signal | strong signals | 6740 counts/energy | 3303 counts/energy | stained weakly | strongly stained | increased over six-fold | almost doubled | 0.25 Count/Energy | 1025 counts/energy | 1816 counts/energy | outlined the gut, kidneys and the brown fat pad in the neck | at least partially excreted through this route | highly detected in the neck and in the left kidney but also in the gut | much higher |  |  | 
B1 |  |  |  |  |  |  |  |  |  |  |  |  |  |  |  |  |  | also detected much smaller lesions | enabled the detection of an additional very small lesion | readily stained calcified lesions
